Reference: US20260325481A1, “THERAPY SELECTION AND TREATMENT OF NEURODEGENERATIVE DISORDERS” (Anavex Life Sciences Corp., priority 2022, published 2026)

System: patients with Parkinson's Disease with Dementia (PDD)
Experiment: ANAVEX 2-73-PDD-001 Phase 2 study (randomized, double blind, placebo-controlled) in Parkinson's Disease with Dementia
Type: in vivo, human
Description: In order to assess the safety, tolerability and efficacy of ANAVEX® 2-73 (blarcamesine) oral capsules in treating cognitive impairment in patients with Parkinson's Disease with Dementia (PDD), a phase 2 study, coded “ANAVEX® 2-73-PDD-001 study” (FIG. 1), was conducted. The study was multi-center, randomized, double blind, placebo-controlled, parallel group with 3-arm. The study included a 2-week Screening/Baseline Observation Period and a 14-week Treatment Period (including a 2 week Titration Period), and a 2-week Safety Follow-Up Period. A total of 132 patients were enrolled in the study and were randomly assigned to three testing arms (FIG. 1). In ANAVEX2-73 High Dose arm, 44 patients were given oral capsules of ANAVEX2-73 once daily in an escalating dose of 10 mg, 20 mg, 30 mg and 50 mg. In ANAVEX2-73 Mid Dose arm, 44 patients were given oral capsules of ANAVEX2-73 once daily in an escalating dose of 10 mg, 20 mg, and 30 mg. In placebo group, 44 patients were given placebo capsules. Outcome measures included Cognitive Drug Research (CDR) Computerized Assessment System on Continuity of Attention; Change from Baseline to End of Treatment in Continuity of Attention as measured by Cognitive Drug Research (CDR) Computerized Assessment System Continuity of Attention; Number of participants with treatment-related adverse events as assessed by CTCAE v4.0 [Time Frame: 14 weeks]; Assessment of the safety and tolerability of ANAVEX2-73 compared to placebo; MDS-UPDRS Part III Total Score (Motor Scores); Change from baseline to End of Treatment as measured by MDS-UPDRS Part III Total Score (Motor Scores); SDS-CL-25 [Time Frame: 14 weeks]; Incidence of sleep disorders symptoms (SDS-CL-25); and DNA/RNA Sequencing. Since MDS-UPDRS is indicative of the motor activity for Parkinson Disease (PD), the trial can also identify the effects of ANAVEX® 2-73 on PD patients.
The trial enrolled 132 adults, ages 50-85, with PDD, and was successfully concluded in September 2020. Participants, recruited at multiple sites in Spain and Australia, were randomly assigned to one of two doses groups (with an escalating ANAVEX 2-73 dose up to 30 or 50 mg oral capsules) or to a placebo, once daily for 14 weeks (see FIG. 1 for details). The trial's main goals were to assess the therapy's safety and changes in patients' cognitive function, measured using the cognitive drug research computerized assessment system—a test that looks at multiple cognitive skills, such as choice reaction time (choosing between similar objects), vigilance, and episodic memory (remembering new personal experiences or shared information). Secondary goals included changes in patients' motor abilities—assessed with the Movement Disorders Society Unified Parkinson's Disease Rating Scale (MDS-UPDRS) Part III—and sleep quality. […] This sleep disorder is associated with greater cognitive impairment and a higher risk of dementia. […] After 14 weeks, the MDS-UPDRS total score dropped by 10.98 points (indicating an easing in disease severity) in the high-dose group and rose by 3.53 points in the placebo group. This represented an adjusted mean improvement of 14.51 points—surpassing the established, clinically meaningful 7.1 point-cut-off—and a relative improvement of 18.9% over 14 weeks. These findings highlight ANAVEX 2-73's ability to not only slow, but also reverse, symptoms that progress in Parkinson's disease, potentially fulfilling an urgent unmet medical need, Anavex stated in its release. […] After completing the PDD-001 trial, patients had the option of being treated with ANAVEX 2-73 for nearly one year in its extension study, called ANAVEX 2-73-PDD-EP-001 (NCT04575259).
Randomized, placebo-controlled clinical trial in 132 patients with Parkinson's disease with dementia (PDD) included prespecified biomarkers of response as well as Whole Exome Sequencing DNA data and full RNA exome expression data collection. […]

CN(C)CC1CCOC1(c1ccccc1)c1ccccc1.Cl (centres unmarked) [ANAVEX2-73, tetrahydro-N,N-dimethyl-2,2-diphenyl-3-furanmethanamine hydrochloride]
Dementia assessment, Quality of Episodic Memory (14-week trial, oral): dose-dependent, statistically significant improvement
REM sleep behavior disorder (14 weeks, previously reported results, confirmed): lessened REM sleep behavior disorder
Cognitive skills (CDR computerized assessment system, 14 weeks, previously reported results, confirmed): significantly improved several cognitive skills
MDS-UPDRS Part II response (MS4A4A Wild Type rs6591561 cohort (excluding rs6591561 homozygous mutation carriers)): strongest response
Response depending on patients' MS4A4A (rs6591561) carrier status (PDD-001 study): Different ANAVEX® 2-73 response
Motor and non-motor Parkinson's symptoms (MDS-UPDRS total score) (high dose (50 mg) once daily oral, 14 weeks): statistically significant and clinically meaningful reductions
Parkinson's assessment, MDS-UPDRS Total score (high oral dose once daily, 14-week trial): significant improvement
Safety (oral capsules once daily up to 30 or 50 mg, 14 weeks, previously reported results): generally safe
